One test deals with CCRF-CEM. Nature of the test: The compound was evaluated for percent reduction of H2O2-induced H2DCFDA fluorescence in human CEM T-cells. Type of test: functional. Details: concentration or dose not given beside the values.
A short description of test [1]: Antioxidant activity was evaluated by measuring the inhibition of oxidation of ABTS to ABTS+ by metmyoglobin in the presence of H2O2. Type of test: functional.
The subject of a further test is NALM-6. Nature of the test: The compound was evaluated for percent reduction of H2O2-induced H2DCFDA fluorescence in NALM-6-B-cells. Format: functional, Homo sapiens. Details: concentration or dose not given beside the values.
The target in test [2] is Human immunodeficiency virus type 1 reverse transcriptase (Human immunodeficiency virus 1, UniProt Q72547). In words: Inhibition of recombinant HIV-1 reverse transcriptase.

As usually defined, the EC50 is the midpoint of the concentration-response curve. As usually defined, the IC50 is the point on the concentration scale where inhibition reaches its midpoint. `COc1ccc(CC/N=C(\S)Nc2ccc(Br)cn2)cc1`: the Reduction in the test on CCRF-CEM is reported as 21.4%; with NALM-6, 0%. Moreover, the EC50 in test [1] came out at 176 µM. Further, the 50% inhibitory concentration (IC50) in test [2] was determined as 0.9 µM.
For the compound `COc1ccc(OC)c(CCNC(=S)Nc2ccc(Br)cn2)c1`, the Reduction in the test on CCRF-CEM turned out to be 29.4%; in the test on NALM-6 it was 11.8%. Further, the EC50 in test [1] was determined as 89 µM.
As for `COc1ccc(OC)c(CC/N=C(/Nc2ccc(Br)cn2)SCc2ccccc2)c1`, the EC50 in test [1] is > 1000 µM. Also, in test [2], the half-inhibitory concentration (IC50) was > 100 µM.
For `Fc1ccc(CC/N=C(\S)Nc2ccc(Br)cn2)cc1`, the Reduction with CCRF-CEM came to 13%; with NALM-6 it was 2%. In addition, in test [1], the EC50 is 89 µM.
Consider `COc1ccccc1CC/N=C(\S)Nc1ccc(Br)cn1`, for which the Reduction is reported as 72.3% in the test with CCRF-CEM and 94.2% in the test on NALM-6. Further, the EC50 in test [1] was 79 µM. Moreover, the 50% inhibitory concentration (IC50) in test [2] was found to be 1 µM.
Compound `Fc1cccc(CC/N=C(\S)Nc2ccc(Br)cn2)c1` returned a Reduction in the test on CCRF-CEM of 45%. For the same compound, in test [1], the concentration giving a half-maximal response (EC50) came to 100 µM.
On to `S=C(NCCc1ccccc1Cl)Nc1ccc(Br)cn1`, for which the Reduction worked out at 56.3% with CCRF-CEM and 32% with NALM-6. The EC50 in test [1] was 75 µM.
As for `COc1cccc(CC/N=C(\S)Nc2ccc(Br)cn2)c1`, the Reduction in the test with CCRF-CEM was 19.7%; in the test on NALM-6, 30.4%. For the same compound, in test [1], the EC50 came out at 90 µM. Further, the half-inhibitory concentration (IC50) in test [2] stood at 0.4 µM.
For `S=C(NCCc1ccccc1)Nc1ccc(Br)cn1`, in that order: 32.1%, 37.1%, 98 µM and 1.3 µM.
VITAMIN E: the EC50 in test [1] stood at 377 µM.
Regarding `Fc1ccccc1CC/N=C(/Nc1ccc(Br)cn1)SCc1ccccc1`, the EC50 in test [1] is > 1000 µM. Moreover, in test [2], the IC50 is > 100 µM.
Take `CS/C(=N\CCc1ccccc1Cl)Nc1ccc(Br)cn1`: in test [1], the concentration giving a half-maximal response (EC50) is > 1000 µM. For the same compound, the half-maximal inhibitory concentration (IC50) in test [2] was > 100 µM.
The like results for `Cc1cn([C@H]2C[C@H](N=[N+]=[N-])[C@@H](CO)O2)c(=O)[nH]c1=O` [ZIDOVUDINE] were, in that order, > 1000 µM and > 100 µM.
`Fc1ccccc1CC/N=C(\S)Nc1ccc(Br)cn1` had a Reduction in the test with CCRF-CEM of 47%. For the same compound, the 50% effective concentration (EC50) in test [1] was determined as 109 µM.
As to `CCCOC(=O)c1cc(O)c(O)c(O)c1` [PROPYL GALLATE], the concentration giving a half-maximal response (EC50) in test [1] stood at 84 µM.
Turning to `Clc1ccccc1CC/N=C(/Nc1ccc(Br)cn1)SCc1ccccc1`, the 50% effective concentration (EC50) in test [1] is > 1000 µM. In test [2], the IC50 is > 100 µM.

(Values after ChEMBL document CHEMBL1132863, “Antioxidant function of phenethyl-5-bromo-pyridyl thiourea compounds with potent anti-HIV activity” (Bioorg Med Chem Lett, 2000).)
